Bridge positions count the residues as written; N and C are the ends. Square brackets hold non-standard residues; d marks the D form. Peptide text beside a SMILES is read from it. Hyp = O=C(O)[C@@H]1C[C@@H](O)CN1; Cit = NC(=O)NCCC[C@H](N)C(=O)O
Experiments:
[1] = Physical stability of peptide analogues (Thioflavin T fibrillation); format: physicochemical; settings: maximum ThT signal normalized between hAMY maximum and buffer background; 40° C., shaking, four days; pH 7 per table title
In short: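 ThT fluorescence (450 nm excitation, 480 nm emission; 4 μM dye) was read every 10 min over four days at 40° C under 700 rpm shaking stress, after 1 h in pH 4 acetate or pH 7 phosphate (50 mM). Peak smoothed signal expressed as percent, scaled between buffer background and hAMY maximum.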

hAM1 receptor = hAM1 receptor (Homo sapiens, UniProt O60895+Q16602); experiment: cAMP assay for in vitro receptor activation, hAM1-R; format: cell-based; settings: cAMP assay, hAM1 receptor; read-out: hAM1R EC50
Chain of hAM1 receptor (Q16602 23-461): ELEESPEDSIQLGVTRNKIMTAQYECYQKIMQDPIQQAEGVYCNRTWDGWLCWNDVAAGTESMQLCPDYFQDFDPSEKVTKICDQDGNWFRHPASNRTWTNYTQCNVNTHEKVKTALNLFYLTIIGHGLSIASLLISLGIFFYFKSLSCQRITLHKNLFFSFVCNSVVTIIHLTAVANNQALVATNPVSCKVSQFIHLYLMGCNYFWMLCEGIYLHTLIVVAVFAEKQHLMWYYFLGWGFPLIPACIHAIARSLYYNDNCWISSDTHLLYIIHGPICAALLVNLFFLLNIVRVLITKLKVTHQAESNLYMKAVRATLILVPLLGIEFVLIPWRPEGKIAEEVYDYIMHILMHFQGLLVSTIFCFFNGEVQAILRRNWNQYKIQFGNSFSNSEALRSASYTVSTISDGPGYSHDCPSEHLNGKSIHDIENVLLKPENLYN
Chain of hAM1 receptor (O60895 43-175 partner): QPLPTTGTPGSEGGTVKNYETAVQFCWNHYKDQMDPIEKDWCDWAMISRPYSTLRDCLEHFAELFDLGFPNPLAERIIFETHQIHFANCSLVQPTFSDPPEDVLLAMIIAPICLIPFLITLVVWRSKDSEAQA
In short: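 A subcloned monoclonal line stably expressing hAM1 receptor is thawed and plated at 8000 cells/well. The assay buffer is DPBS with 0.05% casein and 0.5 mM IBMX, and receptor activation is followed by cAMP levels.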

SMILES: CC[C@H](C)[C@H](NC(=O)[C@H](CCC(N)=O)NC(=O)[C@H](Cc1c[nH]cn1)NC(=O)[C@H](C)NC(=O)[C@H](CC(C)C)NC(=O)[C@H](CCCNC(N)=O)NC(=O)[C@H](CCC(N)=O)NC(=O)[C@@H](NC(=O)[C@@H](NC(=O)[C@@H]1CSSC[C@H](NC(=O)CN)C(=O)N[C@@H](CCCNC(=N)N)C(=O)N[C@@H]([C@@H](C)O)C(=O)NCC(=O)N[C@@H]([C@@H](C)O)C(=O)N1)[C@@H](C)O)C(C)C)C(=O)N[C@@H](Cc1ccc(O)cc1)C(=O)N[C@@H](CCC(N)=O)C(=O)N[C@@H](Cc1ccccc1)C(=O)N[C@H](C(=O)N[C@@H](CC(=O)O)C(=O)N[C@@H](CCCCN)C(=O)N[C@@H](CC(=O)O)C(=O)N[C@@H](CCCCN)C(=O)N[C@@H](CC(=O)O)C(=O)N[C@@H](CC(N)=O)C(=O)N[C@H](C(=O)N[C@@H](C)C(=O)N1CCC[C@H]1C(=O)N[C@@H](CCCNC(=N)N)C(=O)N[C@@H](CO)C(=O)N[C@@H](CC(N)=O)C(=O)N[C@H](C(=O)N[C@@H](CO)C(=O)N1CCC[C@H]1C(=O)N[C@@H](CC(N)=O)C(=O)NCC(=O)N1C[C@H](O)C[C@H]1C(N)=O)C(C)C)C(C)C)[C@@H](C)O [compound 304] (H-GCRTGTCTVQ[Cit]LAHQIYQFTDKDKDNVAPRSNVSPNG[Hyp]-NH2; disulfide 2-7)
- Max ThT signal (%) [1]: 22.350%
- EC50 (hAM1 receptor): > 5 µM

SMILES: CC(C)C[C@H](NC(=O)[C@H](Cc1c[nH]c2ccccc12)NC(=O)[C@H](CCC(N)=O)NC(=O)[C@@H](NC(=O)[C@@H](NC(=O)[C@@H]1CSSC[C@H](NC(=O)CN)C(=O)N[C@@H](CCCNC(=N)N)C(=O)N[C@@H](Cc2ccccc2)C(=O)NCC(=O)N[C@@H]([C@@H](C)O)C(=O)N1)[C@@H](C)O)C(C)C)C(=O)N[C@@H](C)C(=O)N[C@@H](CC(N)=O)C(=O)N[C@@H](Cc1ccccc1)C(=O)N[C@@H](CC(C)C)C(=O)N[C@@H](Cc1ccc(O)cc1)C(=O)N[C@@H](CCC(N)=O)C(=O)N[C@@H](Cc1ccccc1)C(=O)N[C@H](C(=O)N[C@@H](CC(=O)O)C(=O)N[C@@H](CCCCN)C(=O)N[C@@H](CC(=O)O)C(=O)N[C@@H](CCCCN)C(=O)N[C@@H](CC(=O)O)C(=O)N[C@@H](CC(N)=O)C(=O)N[C@H](C(=O)N[C@@H](C)C(=O)N1CCC[C@H]1C(=O)N[C@@H](CCCNC(=N)N)C(=O)N[C@H](C(=O)N[C@@H](CC(N)=O)C(=O)N[C@H](C(=O)NCC(=O)N1CCC[C@H]1C(=O)N[C@@H](CCC(N)=O)C(=O)NCC(=O)N[C@@H](Cc1ccc(O)cc1)C(N)=O)C(C)C)[C@@H](C)O)C(C)C)[C@@H](C)O [compound 311] (H-GCRFGTCTVQWLANFLYQFTDKDKDNVAPRTNVGPQGY-NH2; disulfide 2-7; N-terminus assumed)
- Max ThT signal (%) [1]: 6.450%
- EC50 (hAM1 receptor): > 5 µM

SMILES: CC[C@H](C)[C@H](NC(=O)[C@H](CCC(N)=O)NC(=O)[C@H](CCC(=O)O)NC(=O)[C@H](C)NC(=O)[C@H](CC(C)C)NC(=O)[C@H](Cc1c[nH]c2ccccc12)NC(=O)[C@H](CCC(N)=O)NC(=O)[C@@H](NC(=O)[C@@H](NC(=O)[C@@H]1CSSC[C@H](NC(=O)[C@@H](N)CCCCN)C(=O)N[C@@H](CC(N)=O)C(=O)N[C@@H]([C@@H](C)O)C(=O)N[C@@H](C)C(=O)N[C@@H]([C@@H](C)O)C(=O)N1)[C@@H](C)O)C(C)C)C(=O)N[C@@H](Cc1ccc(O)cc1)C(=O)N[C@@H](CCC(N)=O)C(=O)N[C@@H](Cc1ccccc1)C(=O)N[C@H](C(=O)N[C@@H](CC(=O)O)C(=O)N[C@@H](CCCCN)C(=O)N[C@@H](CC(=O)O)C(=O)N[C@@H](CCCCN)C(=O)N[C@@H](CC(=O)O)C(=O)N[C@@H](CC(N)=O)C(=O)N[C@H](C(=O)N[C@@H](C)C(=O)N1CCC[C@H]1C(=O)N1CCC[C@H]1C(=O)N[C@@H](Cc1ccc(O)cc1)C(=O)N[C@@H](CC(N)=O)C(=O)N[C@@H](CCC(=O)O)C(=O)NCC(=O)N[C@@H](CO)C(=O)N[C@@H](CC(N)=O)C(=O)NCC(=O)N1C[C@H](O)C[C@H]1C(N)=O)C(C)C)[C@@H](C)O [compound 321] (H-KCNTATCTVQWLAEQIYQFTDKDKDNVAPPYNEGSNG[Hyp]-NH2; disulfide 2-7; N-terminus assumed)
- Max ThT signal (%) [1]: 21.700%
- EC50 (hAM1 receptor): > 5 µM

SMILES: CC[C@H](C)[C@H](NC(=O)[C@H](CCC(N)=O)NC(=O)[C@H](Cc1c[nH]cn1)NC(=O)[C@H](C)NC(=O)[C@H](CC(C)C)NC(=O)[C@H](Cc1c[nH]c2ccccc12)NC(=O)[C@H](CCC(N)=O)NC(=O)[C@@H](NC(=O)[C@@H](NC(=O)[C@@H]1CSSC[C@H](NC(=O)[C@@H](N)CCCCN)C(=O)N[C@@H](CC(N)=O)C(=O)N[C@@H]([C@@H](C)O)C(=O)N[C@@H](C)C(=O)N[C@@H]([C@@H](C)O)C(=O)N1)[C@@H](C)O)C(C)C)C(=O)N[C@@H](Cc1ccc(O)cc1)C(=O)N[C@@H](CCC(N)=O)C(=O)N[C@@H](C)C(=O)N[C@H](C(=O)N[C@@H](CC(=O)O)C(=O)N[C@@H](CCCCN)C(=O)N[C@@H](CC(=O)O)C(=O)N[C@@H](CCCCN)C(=O)N[C@@H](CC(=O)O)C(=O)N[C@@H](CC(N)=O)C(=O)N[C@H](C(=O)N[C@@H](C)C(=O)N1CCC[C@H]1C(=O)N1CCC[C@H]1C(=O)N[C@H](C(=O)N[C@@H](CC(N)=O)C(=O)N[C@H](C(=O)NCC(=O)N[C@@H](CO)C(=O)N[C@@H](CC(N)=O)C(=O)NCC(=O)N1C[C@H](O)C[C@H]1C(N)=O)C(C)C)[C@@H](C)O)C(C)C)[C@@H](C)O [compound 338] (H-KCNTATCTVQWLAHQIYQATDKDKDNVAPPTNVGSNG[Hyp]-NH2; disulfide 2-7; N-terminus assumed)
- Max ThT signal (%) [1]: 2.950%
- EC50 (hAM1 receptor): > 5 µM

SMILES: CC[C@H](C)[C@H](NC(=O)[C@H](CCC(N)=O)NC(=O)[C@H](Cc1c[nH]cn1)NC(=O)[C@H](C)NC(=O)[C@H](CC(C)C)NC(=O)[C@H](Cc1c[nH]c2ccccc12)NC(=O)[C@H](CCC(N)=O)NC(=O)[C@@H](NC(=O)[C@@H](NC(=O)[C@@H]1CSSC[C@H](NC(=O)CN)C(=O)N[C@@H](CCCNC(=N)N)C(=O)N[C@@H]([C@@H](C)O)C(=O)NCC(=O)N[C@@H]([C@@H](C)O)C(=O)N1)[C@@H](C)O)C(C)C)C(=O)N[C@@H](Cc1ccc(O)cc1)C(=O)N[C@@H](CCC(N)=O)C(=O)N[C@@H](Cc1ccccc1)C(=O)N[C@H](C(=O)N[C@@H](CC(=O)O)C(=O)N[C@@H](CCCCN)C(=O)N[C@@H](CC(=O)O)C(=O)N[C@@H](CCCCN)C(=O)N[C@@H](CC(=O)O)C(=O)N[C@@H](CC(N)=O)C(=O)N[C@H](C(=O)N[C@@H](C)C(=O)N1CCC[C@H]1C(=O)N[C@@H](CCCNC(=N)N)C(=O)N[C@@H](CO)C(=O)N[C@@H](CCCCN)C(=O)N[C@H](C(=O)NCC(=O)N1CCC[C@H]1C(=O)N[C@@H](CCC(N)=O)C(=O)NCC(=O)N[C@@H](Cc1ccc(O)cc1)C(N)=O)C(C)C)C(C)C)[C@@H](C)O [compound 344] (H-GCRTGTCTVQWLAHQIYQFTDKDKDNVAPRSKVGPQGY-NH2; disulfide 2-7; N-terminus assumed)
- Max ThT signal (%) [1]: 13.350%
- EC50 (hAM1 receptor): > 5 µM

SMILES: CC[C@H](C)[C@H](NC(=O)[C@H](CCC(N)=O)NC(=O)[C@H](Cc1c[nH]cn1)NC(=O)[C@H](C)NC(=O)[C@H](CC(C)C)NC(=O)[C@H](Cc1c[nH]c2ccccc12)NC(=O)[C@H](CCC(N)=O)NC(=O)[C@@H](NC(=O)[C@@H](NC(=O)[C@@H]1CSSC[C@H](NC(=O)CN)C(=O)N[C@@H](CCCNC(=N)N)C(=O)N[C@@H]([C@@H](C)O)C(=O)NCC(=O)N[C@@H]([C@@H](C)O)C(=O)N1)[C@@H](C)O)C(C)C)C(=O)N[C@@H](Cc1ccc(O)cc1)C(=O)N[C@@H](CCC(N)=O)C(=O)N[C@@H](Cc1ccccc1)C(=O)N[C@H](C(=O)N[C@@H](CC(=O)O)C(=O)N[C@@H](CCCCN)C(=O)N[C@@H](CC(=O)O)C(=O)N[C@@H](CCCCN)C(=O)N[C@@H](CC(=O)O)C(=O)N[C@@H](CC(N)=O)C(=O)N[C@H](C(=O)N[C@@H](C)C(=O)N1CCC[C@H]1C(=O)N[C@@H](CCCNC(=N)N)C(=O)N[C@H](C(=O)N[C@@H](CCCCN)C(=O)N[C@H](C(=O)NCC(=O)N1CCC[C@H]1C(=O)N[C@@H](CCC(N)=O)C(=O)NCC(=O)N1C[C@H](O)C[C@H]1C(N)=O)C(C)C)[C@@H](C)O)C(C)C)[C@@H](C)O [compound 349] (H-GCRTGTCTVQWLAHQIYQFTDKDKDNVAPRTKVGPQG[Hyp]-NH2; disulfide 2-7; N-terminus assumed)
- Max ThT signal (%) [1]: 15.250%
- EC50 (hAM1 receptor): > 5 µM

SMILES: CC[C@H](C)[C@@H]1NC(=O)[C@H](CCCNC(=N)N)NC(=O)[C@@H](NC(=O)CN)CSSC[C@@H](C(=O)N[C@H](C(=O)N[C@H](C(=O)N[C@@H](CCC(N)=O)C(=O)N[C@@H](Cc2c[nH]c3ccccc23)C(=O)N[C@@H](CC(C)C)C(=O)N[C@@H](C)C(=O)N[C@@H](Cc2c[nH]cn2)C(=O)N[C@@H](CCC(N)=O)C(=O)N[C@H](C(=O)N[C@@H](Cc2ccc(O)cc2)C(=O)N[C@@H](CCC(N)=O)C(=O)N[C@@H](Cc2ccccc2)C(=O)N[C@H](C(=O)N[C@@H](CC(=O)O)C(=O)N[C@@H](CCCCN)C(=O)N[C@@H](Cc2ccccc2)C(=O)N[C@@H](CCCCN)C(=O)N[C@@H](CC(=O)O)C(=O)N[C@@H](CC(N)=O)C(=O)N[C@H](C(=O)N[C@@H](C)C(=O)N2CCC[C@H]2C(=O)N[C@@H](CCCNC(=N)N)C(=O)N[C@@H](CO)C(=O)N[C@@H](CCCCN)C(=O)N[C@H](C(=O)N[C@@H](CO)C(=O)N2CCC[C@H]2C(=O)N[C@@H](CCC(N)=O)C(=O)N[C@H](C(=O)N2C[C@H](O)C[C@H]2C(N)=O)[C@@H](C)O)[C@@H](C)CC)C(C)C)[C@@H](C)O)[C@@H](C)CC)C(C)C)[C@@H](C)O)NC(=O)[C@H]([C@@H](C)O)NC(=O)CNC1=O [compound 351] (H-GCRIGTCTVQWLAHQIYQFTDKFKDNVAPRSKISPQT[Hyp]-NH2; disulfide 2-7; N-terminus assumed)
- Max ThT signal (%) [1]: 7.200%
- EC50 (hAM1 receptor): > 5 µM
